Data set [1] relates to murine liver microsomes (MLMs). The data set can be described thus: Microsome assay, murine liver microsomes. Conditions: 1 h incubation. The format is in vitro ADME. As to the method:
The stability of [^18F]1 toward liver microsomes was analyzed under oxidative conditions with MLMs (MSMCP, Lot: MS046-C) and HLMs (HMMCPL; Lot: PL050E-B) according to a previously described procedure. In brief, 12.5 µL of the respective microsomes (final 1 mg/mL) were mixed with 110.4 µL of PBS, followed by the addition of 100 µL of [^18F]1 (with 5 MBq and 1% ethanol; final 0.4% ethanol) and 2.1 µL of reference compound (final concentration 50 µM 1), or an equivalent of DMSO. The resulting mixture was mixed at 37 °C for 5 min, and the reaction was then initiated by the addition of 25 µL of NADPH (final 2 mM). After 1 h incubation, the resulting samples were mixed with ice-cold ACN (1/4, v/v) and vortexed for 30 s, placed on ice for 4 min, and finally centrifuged at 13,200 rpm for 5 min at 4 °C. The supernatant was separated and used for further analysis by radio-HPLC (6–10 µL injection volume; System 1b with 25–75% gradient elution) and radio-TLC analysis (2 µL applied on TLC, analysis as described above).
In general terms: Microsomes from liver hold many membrane-bound enzymes, among them those of drug oxidation.

For data set [2], the system named is HepG2 CYP2C19. The data set can be described thus: Competitive coincubation of [18F]1 with competitors, HepG2 CYP2C19. Conditions: 1 h; without additional substances; 120–125 nM [18F]1. As to the method:
Radio thin-layer chromatography (radio-TLC) was carried out on reversed-phase TLC plates (ALUGRAM RP-18W/UV254 from Macherey-Nagel, Düren, Germany) with a mobile phase of 45% ACN in water containing 0.1% trifluoroacetic acid. The samples (2 µL) were spotted onto the TLC plate. The line of origin and the front line were labeled with 1/5 of the sample activity concentration. To track the Rf value of the intact radiotracer, each TLC was spotted with the intact tracer as reference in the middle. Detection of the activity signals was achieved after 10–30 min development on radioluminographic imaging plates (FUJIFILM, Tokyo, Japan) and subsequent readout with Fuji BAS 5000® or Amersham™ Typhoon™ from GE Healthcare (Uppsala, Sweden). The resulting chromatographic profile was analyzed and integrated with the help of AIDA Image Analysis Software (version 5.1). For data depiction, the fraction of each species (intact radiotracer, metabolite, [^18F]fluoride) was plotted.
Incubations were conducted for up to 2 h in a 96-well plate in KHB with a total incubation volume of 50 µL and an ethanol concentration of 0.4%. For the incubation with radiotracers, an activity of 100–200 kBq/well at the start of the experiment was used.
Our last interest within this study was to test if the tracer itself could function as an indicator for the conversion of other substrates acting via inhibition of or competition with the CYP enzymes. In this regard, alternative substrates were added to the incubation mixtures with [^18F]1. The investigated substrates covered testosterone, caffeine, progesterone, compound 3, tebufelone, and RWJ63556 [44] (10 µM for all substances). Furthermore, the influence of testosterone on the metabolic turnover of [^18F]1 was investigated over a concentration range of 1–50 µM.
Figure 7 Coincubation of [^18F]1 and different competitors with (A) HepG2 CYP1A2 and (B) HepG2 CYP2C19. […] Each competitor/inhibitor was incubated with [^18F]1 for 1 h followed by radio-TLC analysis. […]

Consider `Cc1ccc(-c2cc(C[18F])nn2-c2ccc(S(C)(=O)=O)cc2)cc1` [[^18F]1, 3-([^18F]fluoromethyl)-1-[4-(methylsulfonyl)phenyl]-5-(p-tolyl)-1H-pyrazole], for which, in data set [1], the “Formation of second metabolite (M2)” value was “did not lead to the second metabolite”. Besides, the “Intact tracer [18F]1 remaining” value in data set [2] is given as 11%.

Source of the values: publication PMC9368227, “Investigation of Radiotracer Metabolic Stability In Vitro with CYP-Overexpressing Hepatoma Cell Lines” (Cells, 2022).
